Reference: paper PMC7032632 (Experimental eye research, 2019)
Ends that are not written are not given here.

Legend:
[1] = test system: VEGF-activated endothelial cells (primary human dermal microvascular EC); format: cell-based; conditions: 48 h
[2] = test system: choroidal neovascularization (CNV); conditions: mouse, day 0 IVT injection; ref Wang et al., 2012; cited from earlier work
cells presenting 67LR = conditions: ref Gopalakrishna et al., 2018; Yu et al., 2009; cited from earlier work

Substance	EC50 [1] [nM]	other results
Ac-GYDLYRV-NH2 [PEDF 862]	30	–
Ac-GYDLYRVRS-NH2 [PEDF 860]	60	–
NFGYDLYRVRSSMSPTTN [PEDF P18]	10	–
Ac-GV-d-alloIle-Ser-Q-I-R-Pro-ethylamide [ABT-898]	–	laser-induced CNV, IVT injection [2]: mitigate laser-induced CNV
YIGSR	–	activity range in cells presenting 67LR (cells presenting 67LR): 2 to 20 µM
